Experiments:
BV-2 cells [1] = experiment: In vitro phagocytosis assay (pHrodo red Zymosan uptake); type: cell-based, mouse
Procedure: (§1) To induce lipid droplet formation, subconfluent BV-2 cells were treated for 18 hours with 5 μg/ml LPS (Lipopolysaccharide from E. coli, Sigma) in DMEM+5% FBS. Controls received vehicle solution (PBS) only. To inhibit lipid droplet formation, BV-2 cells were pre-treated with 1 μM Triacsin C (Cayman Chemical) or vehicle (saline) in DMEM+5% FBS. 30 min after adding Triacsin C, LPS or LPS-vehicle solution were added and cells were co-treated with Triacsin C and LPS for 18 hours.
For in vitro phagocytosis assays, BV-2 cells were split into 96 well plates at 1000 cells per well in DMEM+5% FBS and treated with LPS, Triacsin C and vehicle solutions for 18 hours. Following specific treatments, 5 ng pHRodo Red Zymosan™ Bioparticles (Thermo Fisher Scientific P35364) in 100 μl DMEM+5% FBS were added per well. Four phase contrast and red fluorescent images per well were acquired every 2 hours for 16 hours using the Incucyte S3 live cell analysis system (Essen Bioscience). For each time point, phagocytosis was calculated by normalizing red fluorescent area to phase confluence.

BV-2 cells [2] = experiment: ROS assay (CellROX fluorescence, microscopy and flow cytometry); type: cell-based, mouse
Procedure: To measure ROS in BV-2 cells, cells were split into 24 well plates at 5×10^4 cells per well in DMEM+5% FBS and treated with LPS, Triacsin C and vehicle solutions for 18 hours. Next, cells were incubated in DMEM+5% FBS with CellROX™ Orange (1:500, Invitrogen) for 30 min at 37° C., washed twice in PBS, and CellROX™ Orange Intensity was examined by fluorescence microscopy (Keyence Corp., Osaka, Japan). Following microscopic analysis, cells were detached using TripLE, transferred to FACS tubes and CellROX™ Orange intensity was analyzed on BD AccuriC6 flow cytometer.

BV-2 cells [3] = experiment: BODIPY fluorescence of BV-2 cells by flow cytometry; type: cell-based, mouse
Procedure: as §1

BV-2 cells [4] = experiment: BODIPY in vitro staining of BV-2 cells (confocal counting of BODIPY+ cells); type: cell-based, mouse
Procedure: as §1
BV-2 cells were seeded at 5×10^4 cells on poly-L-lysine coated glass coverslips in DMEM+5% FBS. Following specific treatments, cells were fixed in 4% PFA for 30 min, washed 3× in PBS and incubated in PBS with BODIPY™ 493/503 (1:1000 from 1 mg/ml stock solution in DMSO; ThermoFisher) and Hoechst 33342 (1:2000, ThermoFisher) for 10 min at RT. Sections were washed twice in PBS and mounted on microscope slides with Vectashield (H-1000, Vector Laboratories). Four randomly selected visual fields per coverslip were photographed (40× magnification) using a confocal scanning laser microscope (LSM 700, Zeiss) with LSM software (ZEN 2011). To analyze the percentage of lipid droplet-containing BV-2 cells, numbers of total Hoechst^+ cells and of Hoechst^+ cells with BODIPY^+ lipid droplets were counted and the percentage of BODIPY^+BV-2 cells was calculated.

BV-2 cells [5] = experiment: Iodo-BODIPY irradiation assay with Calcein AM live cell staining; type: cell-based, mouse; details: LPS 5 μg/ml for 18 hours, 3.8 μM iodo-BODIPY for 30 min, green LED irradiation for 3 hours
Procedure: BV-2 cells were treated for 18 hours with 5 μg/ml LPS in DMEM with 5% FBS to induce lipid droplet formation. Controls received vehicle solution (PBS) only. Cells were washed twice in PBS and incubated in 3.8 μM iodo-BODIPY (see FIG. 8, Panel A; iodo-BODIPY was kindly provided by Prof. Carolyn Bertozzi, Chemistry department, Stanford University) in PBS for 30 min in the incubator (5% CO2, 37° C.). Cells were washed twice in PBS and then irradiated under visible light (green LED; 9 W, 150 mA, 2000 lux) for 3 hours at RT. Non-irradiated cells were kept at RT for 3 hours without irradiation.
To assess cell viability after photoirradiation, irradiated and non-irradiated BV-2 cells were stained with 1 μM Calcein AM (Invitrogen) in PBS for 15 min at 37° C. Cells were then examined by fluorescence microscopy (Keyence Corp., Osaka, Japan) and the percentage of green, Calcein^+BV-2 cells (live cells) of total methyl-di-iodo BODIPY^+ cells (red, lipid droplet containing cells) was calculated.

[6] = tested on: microglia in the hippocampus; experiment: LPS injections in young mice, BODIPY/Iba1 staining of the hippocampus; type: in vivo, mouse; details: 3-month-old mice, i.p. 1 mg LPS/kg BW once daily for four days, compared with vehicle treated controls
Procedure: 3-month-old wild type mice were injected with LPS (Lipopolysaccharide from E. coli, Sigma), i.p. 1 mg LPS/kg body weight once daily for four consecutive days. Control mice were injected with body weight corresponding volumes of PBS. 24 hours after the last LPS injection mice were euthanized, brains were extracted and brain tissue was processed for immunohistochemistry staining (see Perfusion and tissue processing and Immunohistochemistry and BODIPY staining).
Mice were anesthetized using Avertin (Tribromoethanol) and transcardially perfused with 0.9% NaCl solution. Brains were extracted, fixed in 4% paraformaldehyde for 48 hours, cryoprotected in 30% sucrose and then sectioned sagitally or coronally ([…]) using a freezing microtome (Leica). […]
For quantification of BODIPY^+ microglia, of CD68^hi microglia, of BODIPY^+ lipid droplet numbers and of lipid droplet size, analyses were performed blinded on coded slides. […]
To analyze the percentage of lipid droplet-containing microglia, numbers of total TMEM119^+ or lba1^+ cells and of TMEM119+BODIPY^+ or lba1+BODIPY^+ cells were counted and the percentage of BODIPY^+ microglia was calculated. To assess the percentage of CD68^hi cells, BODIPY^−lba1^+ and BODIPY^+lba1^+ cells with clearly visible CD68 immunoreactive particles were counted and normalized to total BODIPY^−lba1^+ and BODIPY^+lba1^+ cells.

[7] = tested on: hippocampal LD-low and LD-high microglia; experiment: Cytokine assay on acutely isolated primary microglia (multiplex array); type: cell-based, mouse; details: aged mice, 100 ng/ml LPS for 8 hours; IL-10, CCL3, CCL4, IL-6, CCL5, TNF-α, IL-1β, IL-1α, CXCL1, CXCL10
Procedure: Primary microglia from hippocampi of 3-month (young) and 20-month-old (aged) wild type mice were isolated as described above (see Microglia Isolation, hippocampi from 3 mice were pooled per age group). CD11b^+CD45^lo primary microglia from young mice, and CD11b^+CD45^lo primary microglia sorted for BODIPY^lo and BODIPY^hi cells from aged mice were sorted into 5% FBS-containing microglial culture medium (DMEM/F12, 1% Pen/Strep; 2 mM glutamine; 5 ug/mL N-acetyl cysteine; 5 ug/mL insulin; 100 ug/mL apo-transferrin; 100 ng/mL sodium selenite; 2 ng/mL human TGF-2; 100 ng/mL murine IL-34; 1.5 ug/mL ovine wool cholesterol; 10 ug/mL heparin sulfate)s. Cells were seeded into 96 well plates at 5000 cells per well in 100 μl microglia culture medium with 5% FBS and incubated for 30 min in the incubator (37° C., 5% CO2). Next, cells were treated with 100 ng/ml LPS or PBS for 8 hours, and supernatant was collected and secreted signaling proteins were measured in culture supernatants using the ‘Mouse Cytokine/Chemokine Array 31-Plex’ from Eve Technologies (Canada).

[8] = 1 μM Triacsin C co-treated with LPS (5 μg/ml) for 18 hours

## CCC/C=C/C/C=C/C=C/C=N/NN=O [Triacsin C]
BV-2 cells [1]; [8]
  pHrodo red Zymosan phagocytosis in LPS-treated cells: increased Zymosan phagocytosis
BV-2 cells [2]; [8]
  ROS levels (CellROX fluorescence) in LPS-treated cells: significantly reduce ROS levels
BV-2 cells [3]; [8]
  effect on BODIPY+ signal in LPS-stimulated BV-2 cells by flow cytometry: inhibited an increase
BV-2 cells [4]; [8]
  effect on LPS-induced increase in BODIPY+ cells: abolished the LPS-induced increase

## iodo-BODIPY [iBP]
BV-2 cells [5]
  cell killing after photoirradiation of iBP+ BV-2 cells (Calcein live cell imaging): selectively killed lipid-droplet rich cells

## Lipopolysaccharide from E. coli [LPS]
[6]
  increase in lipid droplet containing microglia (BODIPY+Iba1+) in the hippocampus: twofold increase
BV-2 cells [1]; 5 μg/ml LPS for 18 hours
  phagocytosis (pHrodo red Zymosan uptake) in BV-2 cells: significantly increased phagocytosis
BV-2 cells [2]; 5 μg/ml LPS for 18 hours
  ROS generation (CellROX fluorescence) in BV-2 cells: induced elevated ROS generation
BV-2 cells [3]; 5 μg/ml LPS for 18 hours
  BODIPY+ fluorescence by flow cytometry: significantly increased
[7]
  cytokine release of LD-high microglia compared to LD-low microglia upon LPS treatment: strongly exaggerated release of multiple cytokines
BV-2 cells [4]; 5 μg/ml LPS for 18 hours, compared with control BV-2 cells
  increase of lipid droplet containing BODIPY+ BV-2 cells: 5 fold

Reference: patent US20220010300A1, “METHODS OF TREATING NEURODEGENERATIVE DISORDERS AND IDENTIFYING TARGETS THEREFORE” (The Board of Trustees of the Leland Stanford Junior …, priority 2019, published 2022)
